# In paper PMC8453745, “Human Mass Balance and Metabolite Profiling of [^14C]‐Pamiparib, a Poly (ADP‐Ribose) Polymerase Inhibitor, in Patients With Advanced Cancer” (Clinical Pharmacology in Drug Development, 2021):
# Entries after “also recorded” stand apart in the source; their conditions may differ.
# Columns and labels:
# [1] = total radioactivity in whole blood of patients (LSC); assay type: in vivo, human; conditions: n = 4
# From the text: Part 1 of the study included a screening phase of up to 28 days prior to drug administration to assess eligibility. Patients were admitted to the clinical research unit (CRU) at Royal Liverpool University Hospital (Liverpool, UK)/Clatterbridge Cancer Centre NHS Foundation Trust (Bebington, Wirral, UK) on day −1 and received a single dose of 60‐mg/100 μCi [^14C]‐pamiparib orally the morning of day 1. Patients remained in the CRU until completion of assessments on day 7, when discharge criteria of ≈90% of the radioactive dose being recovered or <1% of the radioactive dose being recovered in urine and feces for 2 consecutive 24‐hour collection intervals were met. […]
# Patients fasted overnight and 2 hours after oral administration of a single 60‐mg dose containing ≈100 μCi (3.7‐3.9 MBq) of [^14C]‐pamiparib with ≈240 mL of room‐temperature water or juice (orange or grape). The residual radioactivity present in each vial postdose was corrected from the dose. The radioactive dose of 100 μCi of [^14C]‐pamiparib provided minimum risk to patients according to the dosimetry calculation from a quantitative whole‐body autoradiography study in male and female Long Evans rats; the dose also provided sufficient signal for total radioactivity counting and quantitative radioprofiling in blood, plasma, and excreta (data on file). […]
# [2] = test system: human liver microsomes (HLMs); assay: metabolic stability in human liver microsomes; assay type: in vitro ADME; conditions: 90‐minute incubation in HLMs without CYP inhibitors
# Method: (§1) Metabolic stability in human liver microsomes (HLMs) and cytochrome P450 (CYP450) phenotyping assays were conducted in 3D BioOptima (Suzhou, China) using validated methodology, [13] to determine the intrinsic clearance and enzymes responsible for metabolism of pamiparib. HLMs for microsome stability was from BD Biosciences (Woburn, New York). For phenotyping, HLMs and recombinant P450 (rCYP) were from Corning (Woburn, New York). Pamiparib (1 μM) was incubated with pooled HLM (0.5 mg/mL), NADPH (1 mM), and MgCl2 (3 mM) terminated at 0, 5, 15, 30, 60, and 90 minutes. The intrinsic clearance was calculated as 0.693/(t1/2 × HLM concentration), where t1/2 is the half‐life of pamiparib determined in HLMs. For phenotyping in HLMs, pamiparib (1 μM) was incubated in the absence or presence of isoform‐selective inhibitors: 0.2 μM α‐naphthoflavone for CYP1A2, 2 μM clopidogrel for CYP2B6, 16 μM montelukast for CYP2C8, 10 μM sulfaphenazole for CYP2C9, 30 μM nootkatone for CYP2C19, 2 μM quinidine for CYP2D6, and 1 μM ketoconazole for CYP3A. The following isoform‐selective probe substrates served as positive controls: 40 μM phenacetin for CYP1A2, 100 μM bupropion for CYP2B6, 2 μM amodiaquine for CYP2C8, 5 μM diclofenac for CYP2C9, 40 μM S‐mephenytoin for CYP2C19, 5 μM dextromethorphan for CYP2D6, and 2 μM midazolam for CYP3A4. […] Pamiparib (1 μM) was also incubated with rCYP1A2, rCYP2B6, rCYP2C8, rCYP2C9, rCYP2C19, rCYP2D6, or rCYP3A4 (50 pmol/mL) for 90 minutes with NADPH and MgCl2. The following isoform‐selective probe substrates served as positive controls: 1 μM phenacetin for CYP1A2, 2 μM bupropion for CYP2B6, 2 μM amodiaquine for CYP2C8, 2 μM diclofenac for CYP2C9, 10 μM S‐mephenytoin for CYP2C19, 1 μM dextromethorphan for CYP2D6, and 20 μM midazolam for CYP3A4. Pamiparib, M1, and M2 were analyzed by LC‐MS/MS.
# [3] = metabolic stability in human liver microsomes; assay type: in vitro ADME; conditions: human, pooled human liver microsomes, 1 μM, 0.5 mg/mL HLM, NADPH
# Method: as §1
# [4] = test system: PARP2; design: method as in PMID 33264017; conditions: read-out: PARP2 inhibition IC50; cited from earlier work
structure (smiles),measurement,setting,value
C[C@]12CCCN1CC1=NNC(=O)c3cc(F)cc4[nH]c2c1c34 [Pamiparib],"AUC0‐∞ ratio blood/plasma, geometric mean (CV%)",[1],≈ 0.764; also recorded: ≈ 0.76
same,pamiparib remaining,[2],45.0%
same,half-life at 1 μM,[3],3 h
same,microsomal CLint at 1 μM,[3]; read-out: intrinsic clearance in HLM,7.9 µL/min/mg
same,IC50,[4],0.9 nM
